Results on 2 compounds are retold here after patent publication US10640533B2, “Epoxyketone compounds for enzyme inhibition” (CENTRAX INTERNATIONAL, INC., priority 2014, dated 2020).

In data set [1] the target is Constitutive 20S proteasome trypsin-like (T-L) activity (Homo sapiens (Human), UniProt P49720+Q99436). The experiment in a line: Constitutive 20S proteasome T-L activity inhibition, fluorogenic substrate Boc-Leu-Arg-Arg-AMC. The format is biochemical. How it is done: (§1) Inhibition of the 20S proteasome can be determined by methods and assays known in the art, for example, as disclosed by Stein et al., Biochemistry (1996), 35, 3899-3908; by Lightcap et al., Clinical Chemistry, 2000, 46, 673-683; by Kisselev et al., Journal of Biological Chemistry. (2006), 281, 8582-8590 and in U.S. application Ser. No. 09/569,748. The chymotrypsin-like (CT-L), peptidylglutamyl peptide hydrolyzing (PGPH) and trypsin-like (T-L) activities of the 20S proteasome are measured with a fluorogenic substrate assay method using succinyl-Leu-Leu-Val-Tyr-AMC, Z-Leu-Leu-Glu-AMC and Boc-Leu-Arg-Arg-AMC, respectively, as the substrates in an assay buffer. The free fluorophore 7-Amino-4-methylcoumarin (AMC) after cleavage from the substrates is quantified using a fluorometer and activity of CT-L, PGPH and T-L of 20S proteasome is determined.
(§2) Inhibition of the chymotrypsin-like (CT-L), peptidylglutamyl peptide hydrolyzing activity (PGPH), and trypsin-like (T-L) activities of the 20S proteasome in enzymatic assays were determined using succinyl-Leu-Leu-Val-Tyr-AMC (10 μmol/L), Z-Leu-Leu-Glu-AMC (10 μmol/L) and Boc-Leu-Arg-Arg-AMC (50 μmol/L), respectively, as the substrates with purified human 20S proteasome at 2, 4 and 8 nmol/L, respectively, in the assay buffer containing 25 mM HEPES (pH7.5), 0.5 mM EDTA, 0.002% sodium dodecyl sulfate (SDS) and 0.05% NP-40. Stock solutions of the 20S proteasome inhibitors disclosed herein were prepared in dimethyl sulfoxide (DMSO) and the final DMSO concentration in the assay mixture was 1%. Reaction was conducted at room temperature for one hour. Proteasome activity was measured based on detection of the fluorophore 7-Amino-4-methylcoumarin (AMC) after cleavage from the substrates with a plate-based spectrofluorometer.

Data set [2] has as its target 20S Immunoproteasome trypsin-like (T-L) activity (Homo sapiens (Human), UniProt P40306+P49720). The experiment in a line: 20S immunoproteasome T-L activity inhibition, fluorogenic substrate Boc-Leu-Arg-Arg-AMC. The format is biochemical. To be noted: purified human 20S proteasome, room temperature, one hour. Here is the method:
as §1, §2

The target in data set [3] is 20S Immunoproteasome peptidylglutamyl peptide hydrolyzing (PGPH) activity (Homo sapiens (Human), UniProt P28065+P40306). The experiment in a line: 20S immunoproteasome PGPH activity inhibition, fluorogenic substrate Z-Leu-Leu-Glu-AMC. It counts as biochemical. To be noted: purified human 20S proteasome, room temperature, one hour. Here is the method: as §1, §2
A short description of data set [4]: Aqueous solubility of the compounds. The format is physicochemical. To be noted: 50 mM citrate buffer, pH 4, aqueous buffer, thermodynamic from solid, 50 mM citrate pH4.0, 25° C. How it is done:
To determine the solubility of the compounds, 1-5 mg of a compound was weighed into a vial. 1 mL of aqueous buffer (50 mM citrate at pH4.0) was added. The vial was shaken at 25° C. for 24 hours and then centrifuged for 10 min at 10000 rpm. The supernatant was filtered through a 0.45 μm membrane filter and analyzed for the concentration of the compound. In certain embodiments, the aqueous solubility of the compounds is described herein in Table 1.

The target of data set [5] is 20S Immunoproteasome chymotrypsin-like (CT-L) activity (Homo sapiens (Human), UniProt P20618+P28062). The experiment in a line: 20S immunoproteasome CT-L activity inhibition, fluorogenic substrate succinyl-Leu-Leu-Val-Tyr-AMC. It counts as biochemical. To be noted: purified human 20S proteasome, room temperature, one hour. How it is done:
as §1, §2

Data set [6] relates to CT-L activity of the 20S proteasome in blood samples. Briefly: Inhibition of proteasome CT-L activity in blood samples from dosed Balb/c mice. The format is in vivo. To be noted: one hour after dosing, vs vehicle. How it is done:
(§3) The proteasome activity in the blood samples collected from mice administrated of the vehicle was considered as 100% (control group). The remaining activity was calculated by comparing the proteasome activity in the blood samples collected from mice administrated of a compound described herein via intravenous injection (IV) at 10 mg/kg or via oral gavage (PO) at 30 mg/kg to the control group.
(§4) Balb/c mice were administered of either a vehicle (20% (w/v) hydroxypropyl-β-cyclodextrin in 10 mM sodium citrate at pH3.5), or a compound described herein at a tolerated dose via intravenous injection at 10 mg/kg or oral gavage at 30 mg/kg. One hour after dosing, whole blood samples were collected into tubes containing sodium heparin by cardiac puncture and centrifuged at 150×g for 5 minutes at 4° C. The resulting pellet was washed using ice-cold phosphate buffered saline (PBS) three times. […] The concentration of the blood lysate was measured by BCA method. […] The free AMC fluorescence was quantified using a 360/460 nm filter set in a fluorometer to measure the CT-L, PGPH or T-L activities of the 20S proteasome. Percent inhibition of the proteasome activity was calculated by comparing the samples collected from the mice administrated of a compound described herein to the samples collected from the mice administrated of the vehicle. […]

The target in data set [7] is Constitutive 20S proteasome peptidylglutamyl peptide hydrolyzing (PGPH) activity (Homo sapiens (Human), UniProt P28072+Q99436). The experiment in a line: Constitutive 20S proteasome PGPH activity inhibition, fluorogenic substrate Z-Leu-Leu-Glu-AMC. It counts as biochemical. The note with it: purified human 20S proteasome, room temperature, one hour. How it is done: as §1, §2

Data set [8] concerns the target Constitutive 20S proteasome chymotrypsin-like (CT-L) activity (Homo sapiens (Human), UniProt P20618+P28074). The experiment in a line: Constitutive 20S proteasome CT-L activity inhibition, fluorogenic substrate succinyl-Leu-Leu-Val-Tyr-AMC. The format is biochemical. How it is done: as §1, §2
For data set [9], the system named is T-L activity of the 20S proteasome in blood samples. The experiment in a line: Inhibition of proteasome T-L activity in blood samples from dosed Balb/c mice. It counts as in vivo. To be noted: intravenous 10 mg/kg or oral gavage 30 mg/kg (route not given), one hour after dosing, vs vehicle. Here is the method:
as §3, §4

The mark [10] stands for this setting: purified human 20S proteasome, room temperature, one hour, read-out: Proteasome inhibition IC50 (nM) Constitutive 20S proteasome T-L.
The mark [11] stands for this setting: form of 20S proteasome not stated, 'below about'.
Where [12] appears, read: purified human 20S proteasome, room temperature, one hour, read-out: Proteasome inhibition IC50 (nM) Constitutive 20S proteasome CT-L.

Molecules are shown by their SMILES. ≈ marks a conversion by molar mass, not a printed value. Read-outs that look alike come from different tables or passages of the source.

By solubility is commonly meant how much of the substance goes into solution per volume. Low values mean a poorly soluble substance, high ones a readily soluble substance.

For the compound `COC[C@H](NC(=O)[C@H](CCc1ccccc1)NC(=O)c1cc(CN2CCOCC2)on1)C(=O)N[C@@H](Cc1ccccc1)C(=O)[C@@]1(C)CO1` [CX13-603], the IC50 is above 20000 nM in data set [1] (setting [10]); above 20000 nM in data set [2]; above 20000 nM in data set [3]; 11.1 nM in data set [5]; above 20000 nM in data set [7]; below 50 nM in [8] (setting [11]). Moreover, in data set [8] (setting [12]), the IC50 is 14.2 nM. In data set [4], this compound displayed a solubility at 24 h of 520 µg/mL (≈ 786 µM). In addition, the “inhibition of CT-L activity in blood samples” value in data set [6] (oral gavage at 30 mg/kg) is reported as “inhibited the CT-L activity in blood samples”.

For `COC[C@H](NC(=O)[C@H](CCc1ccccc1)NC(=O)Cc1ccc(CN2CCOCC2)cc1)C(=O)N[C@@H](Cc1ccccc1)C(=O)[C@@]1(C)CO1` [CX13-608], the IC50 in data set [1] (form of 20S proteasome not stated, 'below about', read-out: concentration showing inhibition of T-L activity of the 20S proteasome) is below 500 nM; in data set [1] (setting [10]), 490 nM; in data set [2] it was 542 nM; in data set [3], above 20000 nM; in [5] it was 4.26 nM; in data set [7], above 20000 nM. Also, the IC50 is below 5 nM in data set [8] (setting [11]) and 3.73 nM in data set [8] (setting [12]). Moreover, the solubility at 24 h in data set [4] was 1430 µg/mL (≈ 2090 µM). For the same compound, the “inhibition of CT-L activity in blood samples” value in data set [6] (intravenous 10 mg/kg or oral gavage 30 mg/kg (route not given)) is “inhibited both CT-L and T-L activity”. The “inhibition of T-L activity in blood samples” value in [9] is “inhibited both CT-L and T-L activity”.
